Consider 1 compound from ChEMBL document CHEMBL5370645, “Discovery, Characterization, and Bioactivity of the Achromonodins: Lasso Peptides Encoded by Achromobacter” (J Nat Prod, 2023).

Molecules are shown by their SMILES. The source made the active and inactive calls. No cut-off for these calls is given here. Positions of bridges follow the written chain, without caps; N, C: chain ends. Residues, ends and D or L forms follow the SMILES beside them.

For the test, the system named is Escherichia coli. Kind of test: Inhibition of Escherichia coli RNA polymerase assessed as reduction in transcriptional capacity by abortive transcription initiation assay.

Consider `CC[C@H](C)[C@@H]1NC(=O)[C@H](CO)NC(=O)CNC(=O)[C@H](CC(=O)O)NC(=O)CNC(=O)CNC(=O)CC[C@@H](C(=O)N[C@@H](Cc2ccc(O)cc2)C(=O)N[C@@H](Cc2ccccc2)C(=O)N[C@@H](CC(N)=O)C(=O)N[C@@H](CCCNC(=N)N)C(=O)N2CCC[C@H]2C(=O)N[C@@H](CCSC)C(=O)N[C@@H](Cc2c[nH]cn2)C(=O)N[C@H](C(=O)N[C@@H](Cc2c[nH]cn2)C(=O)N[C@@H](CC(=O)O)C(=O)N[C@@H](Cc2c[nH]c3ccccc23)C(=O)N[C@@H](CCC(N)=O)C(=O)N[C@H](C(=O)N[C@@H](CCSC)C(=O)N[C@@H](CC(=O)O)C(=O)N[C@@H](CO)C(=O)NCC(=O)N[C@@H](Cc2ccc(O)cc2)C(=O)N[C@@H](Cc2ccc(O)cc2)C(=O)NCC(=O)O)[C@@H](C)CC)[C@@H](C)CC)NC(=O)[C@H](C)NC1=O` (GGDGSIAEYFNRPMHIHDWQIMDSGYYG-OH; lactam N-8), for which the inhibition result was “Active”.
